Tests used:
Experiment in all cases: NCI cytotoxicity screen (SRB)
Type in all cases: cell-based, human
SF-295 = details: 48 h; CNS Cancer SF-295
Procedure: (§1) Compounds 6, 7, 9 and 10 were tested for cytotoxic properties by the National Cancer Institute, Bethesda, Md. The anticancer drug screen utilized a panel of 60 human tumor cell lines organized into subpanels representing leukemia, melanoma, and cancers of the lung, colon, kidney, ovary and central nervous system and is described by Monks et al. (1991) Journal of the National Cancer Institute 83, 757, which is incorporated herein by reference.
(§2) Cell lines were inoculated onto microtiter plates and preincubated for 24-28 hours. 100 μL aliquots of each compound were added to the appropriate microtiter plate wells in each of five 10-fold dilutions starting from a maximum concentration of 10^-4 M in water or DMSO. Cultures were then incubated for an additional 48 hours. Cells were then fixed in situ, followed by staining with sulforhodamine B (SRB), which binds to basic amino acids of cellular macromolecules. The solubilized stain was measured spectrophotometrically to determine relative cell growth or viability in treated and untreated cells. The monoimidazole analogs of Compounds 6, 7, 9 and 10 and the formamido analog corresponding to Compounds 7 and 10 are devoid of activity against the panel of cancer cell lines in Table III.

KM12 = system: KM12
Procedure: as §1, §2

MALME-3M = system: MALME-3M
Procedure: as §1, §2

NCI-H460 = system: NCI-H460
Procedure: as §1, §2

A549/ATCC = system: A549/ATCC
Procedure: as §1, §2

NCI-H226 = system: NCI-H226
Procedure: as §1, §2

K-562 = details: 48 h; Leukemia K-562
Procedure: as §1, §2

HOP-62 = details: 48 h; Non-Small Cell Lung Cancer HOP-62
Procedure: as §1, §2

Molt-4 = details: 48 h; Leukemia Molt-4
Procedure: as §1, §2

SF-539 = system: SF-539
Procedure: as §1, §2

NCI-H522 = system: NCI-H522
Procedure: as §1, §2

U251 = system: U251
Procedure: as §1, §2

NCI-H23 = system: NCI-H23
Procedure: as §1, §2

SW-620 = system: SW-620
Procedure: as §1, §2

DMS-273 = system: DMS-273
Procedure: as §1, §2

HCT-116 = details: 48 h; Colon Cancer HCT-116
Procedure: as §1, §2

HCC-2998 = system: HCC-2998
Procedure: as §1, §2

COLO-205 = system: COLO-205
Procedure: as §1, §2

KM20L2 = details: 48 h; Colon Cancer KM20L2
Procedure: as §1, §2

NCI-H322M = system: NCI-H322M
Procedure: as §1, §2

HCT-15 = system: HCT-15
Procedure: as §1, §2

EKVX = system: EKVX
Procedure: as §1, §2

DMS-114 = system: DMS-114
Procedure: as §1, §2

SF-268 = details: 48 h; CNS Cancer SF-268
Procedure: as §1, §2

HT29 = system: HT29
Procedure: as §1, §2

XF498 = system: XF498
Procedure: as §1, §2

DLD-1 = details: 48 h; Colon Cancer DLD-1
Procedure: as §1, §2

[1] = 48 h, Non-Small Cell Lung Cancer NCI-H460
[2] = 48 h, Non-Small Cell Lung Cancer A549/ATCC
[3] = 48 h, Non-Small Cell Lung Cancer NCI-H226
[4] = 48 h, Non-Small Cell Lung Cancer NCI-H522
[5] = 48 h, Non-Small Cell Lung Cancer NCI-H23
[6] = 48 h, Small Cell Lung Cancer DMS-273
[7] = 48 h, Non-Small Cell Lung Cancer NCI-H322M
[8] = 48 h, Non-Small Cell Lung Cancer EKVX

Structure (SMILES): CN(C)CCNC(=O)c1nc(NC(=O)c2nc(NC(=O)CCCc3ccc(N(CCCl)CCCl)cc3)cn2C)cn1C [Compound 9, N-(N',N'-dimethylaminoethyl)-1-methyl-4-{4-[4,4-bis(2-chloroethyl)aminophenyl-1-butanamido]-1-methylimidazole-2-carboxamido}imidazole-2-carboxamide]
- IC50 (SF-295): 51.9 µM
- IC50 (KM12; 48 h, Colon Cancer KM12): 60.9 µM
- IC50 (MALME-3M; 48 h, Melanoma MALME-3M): 56.3 µM
- IC50 (NCI-H460; [1]): 43.5 µM
- IC50 (A549/ATCC; [2]): 78.5 µM
- IC50 (NCI-H226; [3]): 47.9 µM
- IC50 (K-562): 54.2 µM
- IC50 (HOP-62): 75.5 µM
- IC50 (Molt-4): 71.3 µM
- IC50 (SF-539; 48 h, CNS Cancer SF-539): 47.9 µM
- IC50 (NCI-H522; [4]): 86.6 µM
- IC50 (U251; 48 h, CNS Cancer U251): 46.2 µM
- IC50 (NCI-H23; [5]): 67.3 µM
- IC50 (SW-620; 48 h, Colon Cancer SW-620): 77.3 µM
- IC50 (DMS-273; [6]): 42.7 µM
- IC50 (HCT-116): 50.2 µM
- IC50 (HCC-2998; 48 h, Colon Cancer HCC-2998): 55.1 µM
- IC50 (COLO-205; 48 h, Colon Cancer COLO-205): 81.6 µM
- IC50 (KM20L2): 53.4 µM
- IC50 (NCI-H322M; [7]): 77.6 µM
- IC50 (HCT-15; 48 h, Colon Cancer HCT-15): 61.3 µM

Structure (SMILES): CN(C)CCNC(=O)c1nc(NC(=O)c2nc(NC(=O)c3nc(NC(=O)CCCc4ccc(N(CCCl)CCCl)cc4)cn3C)cn2C)cn1C [Compound 10, N-(N',N'-dimethylaminoethyl)-1-methyl-4-{1-methyl-4-[4-(4,4-bis(2-chloroethyl)aminophenyl-1-butanamido)-1-methylimidazole-2-carboxamido]imidazole-2-carboxamido}imidazole-2-carboxamide]
- IC50 (SF-295): 9.74 µM
- IC50 (KM12; 48 h, Colon Cancer KM12): 24.1 µM
- IC50 (MALME-3M; 48 h, Melanoma MALME-3M): 52.7 µM
- IC50 (NCI-H460; [1]): 6.13 µM
- IC50 (A549/ATCC; [2]): 10.7 µM
- IC50 (NCI-H226; [3]): 67.5 µM
- IC50 (K-562): 7.05 µM
- IC50 (HOP-62): 44 µM
- IC50 (Molt-4): 3.19 µM
- IC50 (SF-539; 48 h, CNS Cancer SF-539): 6.13 µM
- IC50 (NCI-H522; [4]): 6.77 µM
- IC50 (U251; 48 h, CNS Cancer U251): 5.27 µM
- IC50 (NCI-H23; [5]): 34.8 µM
- IC50 (EKVX; [8]): 87.8 µM
- IC50 (DMS-114; 48 h, Small Cell Lung Cancer DMS-114): 7.49 µM
- IC50 (SW-620; 48 h, Colon Cancer SW-620): 9.3 µM
- IC50 (DMS-273; [6]): 6.78 µM
- IC50 (HCT-116): 5.76 µM
- IC50 (HCC-2998; 48 h, Colon Cancer HCC-2998): 38.5 µM
- IC50 (COLO-205; 48 h, Colon Cancer COLO-205): 11.4 µM
- IC50 (SF-268): 31.3 µM
- IC50 (HT29; 48 h, Colon Cancer HT29): 51 µM
- IC50 (KM20L2): 8.63 µM
- IC50 (NCI-H322M; [7]): 23.9 µM
- IC50 (XF498; 48 h, CNS Cancer XF498): 5.79 µM
- IC50 (DLD-1): 42.2 µM
- IC50 (HCT-15; 48 h, Colon Cancer HCT-15): 45.3 µM

Structure (SMILES): CN(C)CCNC(=O)c1nc(NC(=O)c2nc(NC(=O)c3nc(NC(=O)c4ccc(N(CCCl)CCCl)cc4)cn3C)cn2C)cn1C [Compound 7, N-(N',N'-dimethylaminoethyl)-1-methyl-4-{1-methyl-4-[4-(4,4-bis-(2-chloroethyl)aminobenzamido)-1-methylimidazole-2-carboxamido]imidazole-2-carboxamido}imidazole-2-carboxamide]
- IC50 (SF-295): 4.1 µM
- IC50 (KM12; 48 h, Colon Cancer KM12): 0.96 µM
- IC50 (KM12; KM12, subsequent test date): 0.75 µM
- IC50 (MALME-3M; 48 h, Melanoma MALME-3M): 2.63 µM
- IC50 (MALME-3M; MALME-3M, subsequent test date): 4.34 µM
- IC50 (NCI-H460; [1]): 5.67 µM
- IC50 (NCI-H460; NCI-H460, subsequent test date): 4.12 µM
- IC50 (A549/ATCC; [2]): 5.64 µM
- IC50 (A549/ATCC; A549/ATCC, subsequent test date): 4.12 µM
- IC50 (NCI-H226; NCI-H226, subsequent test date): 5.54 µM
- IC50 (K-562): 0.58 µM
- IC50 (HOP-62): 1.17 µM
- IC50 (Molt-4): 0.98 µM
- IC50 (SF-539; SF-539, subsequent test date): 0.59 µM
- IC50 (NCI-H522; [4]): 4.41 µM
- IC50 (NCI-H522; NCI-H522, subsequent test date): 0.42 µM
- IC50 (U251; U251, subsequent test date): 0.5 µM
- IC50 (NCI-H23; [5]): 0.96 µM
- IC50 (NCI-H23; NCI-H23, subsequent test date): 2.35 µM
- IC50 (EKVX; [8]): 0.88 µM
- IC50 (EKVX; EKVX, subsequent test date): 1.7 µM
- IC50 (DMS-114; DMS-114, subsequent test date): 0.54 µM
- IC50 (SW-620; 48 h, Colon Cancer SW-620): 0.79 µM
- IC50 (SW-620; SW-620, subsequent test date): 0.63 µM
- IC50 (DMS-273; DMS-273, subsequent test date): 0.99 µM
- IC50 (HCC-2998; 48 h, Colon Cancer HCC-2998): 0.68 µM
- IC50 (HCC-2998; HCC-2998, subsequent test date): 0.89 µM
- IC50 (COLO-205; 48 h, Colon Cancer COLO-205): 0.97 µM
- IC50 (COLO-205; COLO-205, subsequent test date): 0.56 µM
- IC50 (SF-268): 0.77 µM
- IC50 (HT29; 48 h, Colon Cancer HT29): 2.3 µM
- IC50 (HT29; HT29, subsequent test date): 1.97 µM
- IC50 (KM20L2): 7.92 µM
- IC50 (NCI-H322M; [7]): 2.39 µM
- IC50 (NCI-H322M; NCI-H322M, subsequent test date): 1.97 µM
- IC50 (XF498; 48 h, CNS Cancer XF498): 0.62 µM
- IC50 (XF498; XF498, subsequent test date): 0.65 µM
- IC50 (DLD-1): 4.34 µM
- IC50 (HCT-15; 48 h, Colon Cancer HCT-15): > 10 µM
- IC50 (HCT-15; HCT-15, subsequent test date): > 100 µM

From patent publication US5273991A, “Imidazole-containing compositions and methods of use thereof analogs of distamycin” (Research Corporation Technologies, Inc., priority 1992, dated 1993)
